Broadly, the bioavailability is the share of a dose that reaches the circulation, judged against a reference dose that is usually intravenous.

Series [1] is described as follows: Plasma protein binding (equilibrium dialysis). It is filed as in vitro ADME. The following applies: Sprague-Dawley (rat), beagle (dog), cynomolgus monkey, pH 7.4, monkey and human plasma, read-out: In vitro protein binding. On the procedure: The current study utilized the 96-well equilibrium dialysis device purchased from HTDialysis to dialyze the test compound and the control compound at 2 μM in plasma at 37±1°C for 4 hrs. Plasma prepared from Sprague-Dawley rats, beagle dog, cynomolgus monkey and humans were previously frozen at below -60°C. The dialysis membrane strips were soaked in ultra-pure water at room temperature for approximately 1 hr. After that, each membrane strip that contains 2 membranes was separated and soaked in ethanol:water (20,80 v,v) for approximately 20 mins, after which it was ready for use or was stored in the solution at 2–8°C for up to a month. Prior to the experiment, the membrane was rinsed and soaked for 20 mins in ultra-pure water. On the day of experiment, the plasma from Sprague-Dawley rats, beagle dogs, cynomolgus monkey and humans was thawed under running cold tap water and centrifuged at 3220×g for 5 mins to remove any clots and the pH value of the resulting plasma will be checked. if required, adjusted to 7.4 ± 0.1. All samples were further processed by protein precipitation for LC/MS/MS analysis (Wuxi AppTec, China).
In general terms: Equilibrium dialysis compares concentrations on both sides of a semipermeable membrane.

A short description of series [2]: In vivo pharmacokinetics, summary over rats and dogs. Also noted: species or system SD rats and beagle dogs. The following applies: Sprague-Dawley (rat), beagle (dog), plasma, range over rats and dogs. As for the experimental part:
Study design: […]). Group 1 was dosed with STP0404 at 1 mg/kg by single intravenous administration. Groups 2 to 4 were dosed with STP0404 at 20, 40 and 80 mg/kg, respectively, by single oral administration. The vehicle used for IV study was DMSO: PEG400: […] Blood samples were collected at 0.0833, 0.25, 0.5, 1, 2, 4, 8, 12 (only for PO groups) and 24 hrs post-dose for Groups 1 to 4. STP0404 concentrations in plasma samples were determined by LC-MS/MS. Preclinical Dog pharmacokinetics study (Study no. 400751-2015020201-DPK): A total of 6 male Beagle dogs were divided into two groups (3 animals/group). Following single STP0404 2 mg/kg oral and intravenous administration to Beagle Dogs, STP0404 concentration was determined in plasma, and pharmacokinetic parameters were calculated. […] The concentrations of STP0404 in plasma were determined by using a LC/MS/MS method.

For `Cc1nc2c(c(C)c(C)n2Cc2cnn(C)c2)c(-c2ccc(Cl)cc2)c1[C@H](OC(C)(C)C)C(=O)O` [STP0404], in series [1], the fraction unbound at 4 h, 2 μM lay within 0.003 to 0.061. Besides, in series [2] (intravenous, oral, read-out: half-life (T1/2)), the half-life was 3 to 7 h. The bioavailability in series [2] (po, read-out: oral bioavailability (Ft)) lay in the range of 50 to 93%.

For the origin of these results see publication PMC8297771 (PLoS Pathogens, 2021).
